Values of other authors as cited in paper PMC10307885, “A Phase 1/2 trial of SRA737 (a Chk1 inhibitor) administered orally in patients with advanced cancer” (British Journal of Cancer, 2023).

Legend:
patients [1] = details: cited from earlier work
patients [2] = details: cited from earlier work; remark: listed apart in the source
[3] = in combination with standard dose gemcitabine

NC(=O)Nc1cc(-c2cccc(F)c2)sc1C(=O)N[C@H]1CCCNC1 [AZD7762]
toxicity that halted development (patients [1]; intravenously administered): cardiac toxicity including a drop in ejection fraction

N[C@@H]1CCCN(c2c(Br)cnc3[nH]cc(NC(=O)C4CC4)c23)C1 [GDC-0575]
Treatment-related neutropenia of NCI CTCAE Grade 3 or higher (patients [1]; [3]): 60 % of patients | treatment-related GI adverse events of all grades: diarrhoea (patients [1]; [3]): 18% | treatment-related GI adverse events of all grades: nausea (patients [1]; [3]): 43% | treatment-related GI adverse events of all grades: vomiting (patients [1]; [3]): 27% | partial or complete responses (patients [2]; used as a single agent): did not report partial or complete responses

COc1cccc(OCCCN)c1-c1cc(Nc2cnc(C#N)cn2)n[nH]1 [prexasertib]
rate of diarrhoea (patients [1]; intravenous, Phase 2 study): 20% | rate of nausea (patients [1]; intravenous, Phase 2 study): 36% | rate of vomiting (patients [1]; intravenous, Phase 2 study): 27% | efficacy in squamous anal and head and neck cancers (patients [2]; intravenous, Phase 1 study): partial responses | response rate (patients [2]; patients with high-grade serous ovarian cancers): 33%
